This is an account of results in patent US20260285871A1, “Polymorphic Compounds and Uses Thereof” (TYRA BIOSCIENCES, INC., priority 2022, published 2026).

Molecules are shown by their SMILES.

Format in all cases: physicochemical
A short description of data set [1]: Dynamic Vapor Sorption (DVS), moisture sorption/desorption. The settings on record: data not shown; for hygroscopicity suggested by vapor sorption data: DVS, 5% to 98% RH. The text has this:
Dynamic Vapor Sorption (DVS): Moisture sorption/desorption data were collected on a DVS-intrinsic vapor sorption analyser (Surface Measurement Systems NA, Allentown, PA, USA) and operating with DVS-intrinsic control software (Version 1.0.5.1). Samples were not dried prior to analysis. Sorption and desorption data were collected over a range from 5% to 98% relative humidity (RH) via 10% RH increments under a nitrogen purge. The equilibrium criterion used for analysis was less than 0.005% weight change in 10 min with a maximum equilibration time of 3 h.

The nature of data set [2]: Crystallization (polymorph) studies of compound 2: fast, reactive, slurry at 40° C., anti-solvent; solids analysed by XRPD. The settings on record: solvent 1,2 Prop Diol. As for the experimental part:
Forms I-XIII of compound 2 were prepared according to one of the crystallization methods described below, e.g., fast crystallization; reactive crystallization; slurry crystallization or anti-solvent crystallization.
Fast Crystallization Method: In a typical experiment, compound 2 (ca. 10 mg) was dissolved in minimum quantity the stated solvent while heating to 80° C. The resulted solution was allowed to cool down to room temperature. […]
Reactive Crystallization: Benzene sulfonic acid (BSA) was dissolved in THF to prepare a stock solution and used for all the reactive crystallization experiments. Compound A free base (ca. 30 mg) was dissolved in minimum quantity the stated solvent while heating to 80° C. The resultant compound A free base solutions were allowed to cooldown to RT and added one equivalent of BSA stock solution. It was observed that most of the reactions yielded precipitate. […]
Slurry Crystallization at 40° C. using Form I of compound 2: In a typical experiment, compound 2 (ca. 100 mg) was suspended in minimum quantity the stated solvent while heating to 40° C. The resulted slurries were allowed to stir at 40° C. for three days.
Anti-Solvent Crystallization: In a typical experiment, compound 2 (ca. 100 mg) was dissolved in solubilizing solvent. To that solution 200 μL anti-solvent was added slowly. These iterations were continued until the precipitation observed or maximum solvent quantity of ~15 mL.

Data set [3] can be described thus: Storage of solid form at RT, form followed by XRPD. The settings on record: storage at RT for about one month. The method, then:
X-Ray Powder Diffraction (XRPD) Data Collection Strategy: XRPD patterns of samples were recorded at room temperature on Aeris X-ray diffractometer (Almelo, The Netherlands) using Cu Kα radiation (λ=1.54 Å) at 40 kV, 15 mA passing through a Ni monochromater. Data were collected in a continuous scan mode with a step size of 0.02° and dwell time of 149 s over an angular range of 3° to 40° 2θ. The sample was loaded on a zero-background holder and gently pressed by a clean glass slide to ensure coplanarity of the sample surface with the surface of the holder. Obtained diffractograms were analysed and plotted with HighScore Plus software (V 5.0; Almelo, The Netherlands).

`C[C@@H](Oc1ccc2[nH]nc(-c3ccc(N4CC5(C4)CN(S(C)(=O)=O)C5)nc3)c2c1)c1c(Cl)cncc1Cl.O=P(O)(O)O` [Form I of Compound 23]: the “hygroscopicity suggested by vapor sorption data” value (shortened to “hygroscopicity suggested”) in data set [1] is reported as “hygroscopic”.
Still for that read-out and setting: the same measure for `C[C@@H](Oc1ccc2[nH]nc(-c3ccc(N4CC5(C4)CN(S(C)(=O)=O)C5)nc3)c2c1)c1c(Cl)cncc1Cl.O=C(O)/C=C/C(=O)O` (stereo in doubt) [Form II of Compound 3]: “moderately hygroscopic”.
As for `C[C@@H](Oc1ccc2[nH]nc(-c3ccc(N4CC5(C4)CN(S(C)(=O)=O)C5)nc3)c2c1)c1c(Cl)cncc1Cl.O=S(=O)(O)c1ccccc1` [Compound 2], the “Anti-Solvent Crystallization Result” value is “Form-X” in data set [2] (anti-solvent 4-Me-2-Pentanone), “Form-XI” in data set [2] (anti-solvent DEE), “Form-XI” in data set [2] (anti-solvent EtOAc) and “Form-XI” in data set [2] (anti-solvent T-butyl-methyl-ether).
`Br.C[C@@H](Oc1ccc2[nH]nc(-c3ccc(N4CC5(C4)CN(S(C)(=O)=O)C5)nc3)c2c1)c1c(Cl)cncc1Cl` [Form II of Compound 12]: the “hygroscopicity suggested” value in data set [1] is reported as “moderately hygroscopic”.
For `C[C@@H](Oc1ccc2[nH]nc(-c3ccc(N4CC5(C4)CN(S(C)(=O)=O)C5)nc3)c2c1)c1c(Cl)cncc1Cl` [Form II of Compound 5], the “hygroscopicity suggested” value in data set [1] is “moderately hygroscopic”.
Consider `C[C@@H](Oc1ccc2[nH]nc(-c3ccc(N4CC5(C4)CN(S(C)(=O)=O)C5)nc3)c2c1)c1c(Cl)cncc1Cl` [Form I of Compound 24], for which, in data set [1], the “stability suggested by vapor sorption / DVS data” value is listed as “instability” and the “weight loss observed in the DVS data” value is listed as “about 3.27%”.
Turning to `C[C@@H](Oc1ccc2[nH]nc(-c3ccc(N4CC5(C4)CN(S(C)(=O)=O)C5)nc3)c2c1)c1c(Cl)cncc1Cl.O=C(O)C(O)C(O)C(=O)O` [Form I of Compound 25], the “hygroscopicity suggested” value in data set [1] was “moderately hygroscopic”.
Regarding `C[C@@H](Oc1ccc2[nH]nc(-c3ccc(N4CC5(C4)CN(S(C)(=O)=O)C5)nc3)c2c1)c1c(Cl)cncc1Cl.O=S(=O)(O)c1ccccc1` [Form VIII of compound 2], the “solid form change during storage” value in data set [3] was “transformed to Form I of compound 2”.
Consider `C[C@@H](Oc1ccc2[nH]nc(-c3ccc(N4CC5(C4)CN(S(C)(=O)=O)C5)nc3)c2c1)c1c(Cl)cncc1Cl.O=C(O)CC(=O)O` [Form I of Compound 26], for which, in data set [1], the “hygroscopicity suggested” value is “moderately hygroscopic” and the “weight loss observed in the DVS data” value was “about 2.1%”.
Consider `C[C@@H](Oc1ccc2[nH]nc(-c3ccc(N4CC5(C4)CN(S(C)(=O)=O)C5)nc3)c2c1)c1c(Cl)cncc1Cl.Cl` [Form II of Compound 1], for which the “hygroscopicity suggested” value in data set [1] is on record as “moderately hygroscopic”.
